These results are taken from ChEMBL document CHEMBL1909046, “DrugMatrix in vitro pharmacology data”.

Test [1] concerns the target T1, 5-hydroxytryptamine receptor 2C (Homo sapiens, UniProt P28335).
T1 sequence (P28335 whole entry): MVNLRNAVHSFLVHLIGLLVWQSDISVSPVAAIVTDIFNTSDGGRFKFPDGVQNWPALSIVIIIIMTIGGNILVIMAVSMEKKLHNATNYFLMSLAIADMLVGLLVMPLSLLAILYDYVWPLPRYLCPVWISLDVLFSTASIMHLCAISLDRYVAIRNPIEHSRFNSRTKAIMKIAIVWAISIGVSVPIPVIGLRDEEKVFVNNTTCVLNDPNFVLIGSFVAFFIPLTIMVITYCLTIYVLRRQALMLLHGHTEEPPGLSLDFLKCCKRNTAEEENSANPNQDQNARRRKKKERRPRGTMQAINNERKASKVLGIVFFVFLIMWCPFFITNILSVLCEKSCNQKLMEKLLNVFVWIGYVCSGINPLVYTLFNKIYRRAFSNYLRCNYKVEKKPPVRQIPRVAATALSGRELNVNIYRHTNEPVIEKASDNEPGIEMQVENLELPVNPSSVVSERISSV
The test can be described thus: DRUGMATRIX: Serotonin (5-Hydroxytryptamine) 5-HT2C radioligand binding (ligand: [3H] Mesulergine). The class given is cell membranes, CHO-K1, Membrane. As to conditions: Not Active = under 50% inhibition at 10 µM.

In test [2] the target is Mitogen-activated protein kinase 14 (Homo sapiens, UniProt Q16539). Also on record: species or system Escherichia coli.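 Note: inhibition of p38alpha enzyme activity in a biochemical kinase assay, with myelin basic protein serving as substrate; in other assays of this panel Not Active means under 50% inhibition at 10 µM.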
Sequence of Mitogen-activated protein kinase 14 (Q16539 whole entry): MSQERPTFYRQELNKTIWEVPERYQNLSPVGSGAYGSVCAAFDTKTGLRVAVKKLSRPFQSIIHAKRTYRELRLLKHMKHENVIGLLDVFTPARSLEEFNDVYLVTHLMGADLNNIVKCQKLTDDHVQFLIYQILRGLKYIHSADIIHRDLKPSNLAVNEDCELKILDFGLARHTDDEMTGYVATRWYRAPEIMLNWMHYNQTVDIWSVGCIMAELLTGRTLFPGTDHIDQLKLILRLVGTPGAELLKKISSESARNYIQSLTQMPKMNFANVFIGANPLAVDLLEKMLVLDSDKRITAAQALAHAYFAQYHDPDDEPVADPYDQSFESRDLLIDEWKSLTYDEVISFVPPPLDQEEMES
The nature of test [3]: DRUGMATRIX: Calcium Channel Type L, Benzothiazepine radioligand binding (ligand: [3H] Diltiazem). The class given is cell membranes, Rattus norvegicus, Wistar, Brain, Membrane. The following applies: Not Active = under 50% inhibition at 10 µM.
Test [4] deals with T2, Estrogen receptor (Homo sapiens, UniProt P03372).
T2 sequence (P03372 whole entry): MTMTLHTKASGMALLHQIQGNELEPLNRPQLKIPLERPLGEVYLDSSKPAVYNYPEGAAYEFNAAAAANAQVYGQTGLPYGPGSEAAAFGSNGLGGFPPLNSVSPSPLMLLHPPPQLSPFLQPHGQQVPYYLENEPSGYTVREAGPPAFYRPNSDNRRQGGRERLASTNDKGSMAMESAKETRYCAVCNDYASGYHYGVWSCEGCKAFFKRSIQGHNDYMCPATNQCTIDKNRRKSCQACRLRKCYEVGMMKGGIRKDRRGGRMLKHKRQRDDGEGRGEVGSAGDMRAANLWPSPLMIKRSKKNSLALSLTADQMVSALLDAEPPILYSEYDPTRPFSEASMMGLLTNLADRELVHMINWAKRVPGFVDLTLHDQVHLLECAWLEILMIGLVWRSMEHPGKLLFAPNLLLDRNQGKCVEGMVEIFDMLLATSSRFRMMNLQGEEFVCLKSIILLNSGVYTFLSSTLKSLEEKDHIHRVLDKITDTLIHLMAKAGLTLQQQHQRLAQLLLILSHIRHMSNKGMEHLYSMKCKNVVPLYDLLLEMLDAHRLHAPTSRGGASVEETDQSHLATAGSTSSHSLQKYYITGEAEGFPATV
The following applies: sf9.

For test [5], the target named is T3, Cholecystokinin receptor type A (Homo sapiens, UniProt P32238). Note: in other assays of this panel Not Active means under 50% inhibition at 10 µM.
T3 sequence (P32238 whole entry): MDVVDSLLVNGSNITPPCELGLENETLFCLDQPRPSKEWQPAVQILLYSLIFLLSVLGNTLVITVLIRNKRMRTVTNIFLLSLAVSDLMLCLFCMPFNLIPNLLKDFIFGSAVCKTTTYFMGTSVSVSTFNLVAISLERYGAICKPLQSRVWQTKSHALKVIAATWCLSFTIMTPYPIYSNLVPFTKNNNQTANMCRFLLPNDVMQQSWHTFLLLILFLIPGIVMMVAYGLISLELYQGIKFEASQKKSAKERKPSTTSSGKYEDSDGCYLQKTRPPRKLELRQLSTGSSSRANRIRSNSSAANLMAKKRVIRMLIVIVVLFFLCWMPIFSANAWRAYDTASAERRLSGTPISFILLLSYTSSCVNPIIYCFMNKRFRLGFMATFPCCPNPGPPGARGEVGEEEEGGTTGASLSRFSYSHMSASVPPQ
The class given is cell membranes, Membrane. The following applies: 1321-n1.

For test [6], the target named is T4, D(4) dopamine receptor (Homo sapiens, UniProt P21917).
T4 sequence (P21917 whole entry): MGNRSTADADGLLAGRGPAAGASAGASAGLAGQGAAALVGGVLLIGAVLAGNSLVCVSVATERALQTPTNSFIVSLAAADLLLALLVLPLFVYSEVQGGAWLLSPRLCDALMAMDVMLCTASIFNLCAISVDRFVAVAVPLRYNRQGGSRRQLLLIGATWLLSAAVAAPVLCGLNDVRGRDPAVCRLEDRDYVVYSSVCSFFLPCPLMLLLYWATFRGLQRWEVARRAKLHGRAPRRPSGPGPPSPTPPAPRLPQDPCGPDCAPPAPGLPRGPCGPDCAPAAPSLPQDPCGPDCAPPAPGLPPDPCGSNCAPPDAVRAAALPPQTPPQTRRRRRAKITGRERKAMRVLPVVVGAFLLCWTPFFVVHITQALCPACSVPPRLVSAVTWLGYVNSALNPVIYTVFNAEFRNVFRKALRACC
The test can be described thus: DRUGMATRIX: Dopamine D4.2 radioligand binding (ligand: [3H] Spiperone). Type of test: cell membranes, CHO-K1, Membrane. As to conditions: cho-k1; Not Active = under 50% inhibition at 10 µM.

`COc1ccc(C2C(=O)c3ccccc3C2=O)cc1` [ANISINDIONE]: the IC50 entry in test [1] (cho-k1), in test [2], in test [3], in test [4], in test [5] and in test [6] was “Not Active” each time. For the same compound, the Ki entry in test [3] was “Not Active”.
Take `CC[C@H](C)[C@H]1O[C@]2(C=C[C@@H]1C)C[C@@H]1C[C@@H](C/C=C(\C)[C@@H](O[C@H]3C[C@H](OC)[C@@H](O[C@H]4C[C@H](OC)[C@@H](O)[C@H](C)O4)[C@H](C)O3)[C@@H](C)/C=C/C=C3\CO[C@@H]4[C@H](O)C(C)=C[C@@H](C(=O)O1)[C@]34O)O2.CO[C@H]1C[C@H](O[C@H]2[C@H](C)O[C@@H](O[C@@H]3/C(C)=C/C[C@@H]4C[C@@H](C[C@]5(C=C[C@H](C)[C@@H](C(C)C)O5)O4)OC(=O)[C@@H]4C=C(C)[C@@H](O)[C@H]5OC/C(=C\C=C\[C@@H]3C)[C@]54O)C[C@@H]2OC)O[C@@H](C)[C@@H]1O` [ABAMECTIN]: the IC50 entry in test [1] (cho-k1), in test [2], in test [3], in test [4], in test [5] and in test [6] was “Not Active” in each case. In addition, in test [3], the Ki result is recorded as “Not Active”.
For `CN/C(=N\CCSCc1nc[nH]c1C)NC#N` [CIMETIDINE], the IC50 entry in test [1] (cho-k1), in test [2], in test [3], in test [4], in test [5] and in test [6] was “Not Active” throughout. In addition, in test [3], the Ki result is on record as “Not Active”.
As to NYSTATIN, the IC50 entry in test [1] (cho-k1), in test [2], in test [3], in test [4], in test [5] and in test [6] was “Not Active” throughout. Besides, the Ki result in test [1] (cho-k1), in test [2], in test [3], in test [4], in test [5] and in test [6] was “Not Active” each time.
As to `COC(=O)Nc1nc2ccc([S+]([O-])c3ccccc3)cc2[nH]1` (stereo unspecified) [OXFENDAZOLE], the IC50 result in test [1] (cho-k1), in test [2], in test [3], in test [4], in test [5] and in test [6] was “Not Active” throughout. The Ki entry in test [3] is on record as “Not Active”.
`CCC1(C)CC(=O)NC1=O` (stereo unspecified) [ETHOSUXIMIDE]: the IC50 result in test [1] (cho-k1), in test [2], in test [3], in test [4], in test [5] and in test [6] was “Not Active” throughout. Further, the Ki result in test [3] was “Not Active”.
Turning to `O=C(O)CCNC(=O)c1ccccc1` [BETAMIPRON], the IC50 result in test [1] (cho-k1), in test [2], in test [3], in test [4], in test [5] and in test [6] was “Not Active” throughout. Moreover, the Ki result in test [3] is given as “Not Active”.
Regarding `COc1cc(N)c(Cl)cc1C(=O)NC1CCN(CCCOc2ccc(F)cc2)CC1OC` (stereo unspecified) [CISAPRIDE], the IC50 entry in test [2] is “Not Active”; in test [3] (read-out: IC50) it was 802 nM; in test [4] it was “Not Active”; in test [5], “Not Active”; in test [6] it was “Not Active”. The Ki in test [3] (read-out: Ki) was 713 nM.
Consider `CC(=O)O[C@H]1C(=O)[C@@]2(C)[C@H]([C@H](OC(=O)c3ccccc3)[C@]3(O)C[C@H](OC(=O)[C@H](O)[C@@H](NC(=O)c4ccccc4)c4ccccc4)C(C)=C1C3(C)C)[C@]1(OC(C)=O)CO[C@@H]1C[C@@H]2O` [PACLITAXEL], for which the IC50 entry in test [1] (cho-k1), in test [2], in test [3], in test [4] and in test [6] was “Not Active” throughout. Moreover, in test [3], the Ki result is “Not Active”.
For the compound `Oc1c(Cl)cc(Cl)c(Cl)c1Cc1c(O)c(Cl)cc(Cl)c1Cl` [HEXACHLOROPHENE], the IC50 was 4600 nM in test [1] (read-out: IC50); 87.6 nM in test [2] (read-out: IC50); “Not Active” in test [3]; “Not Active” in test [5]; “Not Active” in test [6]. Moreover, the values for the Ki in test [1] (read-out: Ki) and in test [3] were 2410 nM and “Not Active”, respectively.
Regarding `CC(C)=CCC/C(C)=C/CO` [GERANIOL], the IC50 entry in test [1] (cho-k1), in test [2], in test [3], in test [5] and in test [6] was “Not Active” throughout. For the same compound, in test [3], the Ki entry is “Not Active”.
As to `CCCOc1ccc(C(=O)OCCN(CC)CC)cc1N` [PROPARACAINE], the IC50 result in test [1] (cho-k1), in test [2], in test [3], in test [5] and in test [6] was “Not Active” in each case. Also, the Ki entry in test [3] is “Not Active”.
For `CCCN(CCC)S(=O)(=O)c1ccc(C(=O)O)cc1` [PROBENECID], the IC50 entry in test [1] (cho-k1), in test [2], in test [3], in test [5] and in test [6] was “Not Active” throughout. Also, the Ki entry in test [3] is “Not Active”.
Regarding `CC(C(=O)O)c1cccc(Oc2ccccc2)c1` (stereo unspecified) [FENOPROFEN], the IC50 result in test [1] (cho-k1), in test [2], in test [3], in test [5] and in test [6] was “Not Active” throughout. For the same compound, the Ki result in test [3] is “Not Active”.
Turning to `C[C@@H]1O[C@@H](O[C@@H]2C=C3CC[C@@H]4[C@H](CC[C@]5(C)[C@@H](c6ccc(=O)oc6)CC[C@]45O)[C@@]3(C)CC2)[C@H](O)[C@H](O)[C@H]1O` [PROSCILLARIDIN], the IC50 result in test [1] (cho-k1), in test [2], in test [3], in test [5] and in test [6] was “Not Active” in each case. Besides, in test [3], the Ki result was “Not Active”.
With `C[C@@H]1C[C@H]2[C@@H]3CCC4=CC(=O)C=C[C@]4(C)[C@@]3(F)[C@@H](O)C[C@]2(C)[C@@]1(O)C(=O)CO` [DEXAMETHASONE], the IC50 result in test [1] (cho-k1), in test [2], in test [3], in test [5] and in test [6] was “Not Active” throughout. The Ki result in test [3] was “Not Active”.
Regarding `CCn1cc(C(=O)O)c(=O)c2cnc(N3CCCC3)nc21` [PIROMIDIC ACID], the IC50 entry in test [1] (cho-k1), in test [2], in test [3], in test [5] and in test [6] was “Not Active” in each case. Also, in test [3], the Ki result was “Not Active”.
Regarding `COC(=O)Nc1nc2ccc(C(=O)c3cccs3)cc2[nH]1` [NOCODAZOLE], the 50% inhibitory concentration (IC50) result in test [1] (cho-k1), in test [2], in test [3], in test [5] and in test [6] was “Not Active” in each case. Further, in test [3], the Ki entry is on record as “Not Active”.

Broadly, the IC50 is the concentration needed to halve the response being measured. A word on the Ki: it is the equilibrium dissociation constant of an inhibitor or competing ligand from its target.
